We go through nine compounds from patent publication US12404239B2, “Modulators of BCL6 as ligand directed degraders” (Celgene Corporation, priority 2022, dated 2025).

SMILES strings stand for the structures.

This experiment concerns the target T1, BCL6 (Homo sapiens, UniProt P41182).
T1 construct: HiBiT-tag knocked into endogenous BCL6 locus using CRISPR; endogenous in cells; host or cells: DHL-4_BCL6_HiBiT cells (CRISPR knock-in)
Kind of experiment: BCL6_HiBiT degradation assay (2 h). The format is cell-based. The settings on record: DHL-4_BCL6_HiBiT cells, read-out: YCon (% remaining maximal effect). The gist of the method: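 DHL-4 cells carrying CRISPR HiBiT knock-in at endogenous BCL6, treated 2 h at 37 °C with 10-point 3-fold dilutions from 1-10 μM. BCL6 level read by Nano-Glo HiBiT lytic luminescence normalized to DMSO; four-parameter fit gives degradation EC50 and Yconstant (% remaining at maximal effect).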
On the technique in general: HiBiT is a short tag that completes a luciferase, so light tracks the accessible tagged protein.
For the compound `C[C@@H]1CN(c2ncc(Cl)c(Nc3cnc4c(c3)CC(=O)N4C)n2)CC[C@H]1Nc1ccc2c(C3CCC(=O)NC3=O)nn(C)c2c1` (stereo partly drawn) [Example 74, 3-(6-(((3R,4R)-1-(5-chloro-4-((1-methyl-2-oxo-2,3-dihydro-1H-pyrrolo[2,3-b]pyridin-5-yl)amino)pyrimidin-2-yl)-3-methylpiperidin-4-yl)amino)-1-methyl-1H-indazol-3-yl)piperidine-2,6-dione], the Percent BCL6 remaining at maximal degradation (Ycon) was in the range of 20 to 60%. The same measure for `COCCN1C(=O)Cc2cc(Nc3nc(N4CC[C@@H](Nc5ccc6c(C7CCC(=O)NC7=O)nn(C)c6c5)[C@H](C)C4)ncc3Cl)ccc21` (stereo partly drawn) [Example 75, 3-(6-(((3R,4R)-1-(5-chloro-4-((1-(2-methoxyethyl)-2-oxoindolin-5-yl)amino)pyrimidin-2-yl)-3-methylpiperidin-4-yl)amino)-1-methyl-1H-indazol-3-yl)piperidine-2,6-dione]: < 20%; for `C[C@@H]1CN(c2ncc(Cl)c(Nc3ccc4c(c3)CC(=O)N4C)n2)C[C@@H](C)N1c1ccc2c(C3CCC(=O)NC3=O)nn(C)c2c1` (stereo partly drawn) [Example 78, 3-(6-((2R,6R)-4-(5-chloro-4-((1-methyl-2-oxoindolin-5-yl)amino)pyrimidin-2-yl)-2,6-dimethylpiperazin-1-yl)-1-methyl-1H-indazol-3-yl)piperidine-2,6-dione]: 20 to 60%. Turning to `C[C@H]1C[C@H](Nc2ccc3c(C4CCC(=O)NC4=O)nn(C)c3c2)CCN1c1ncc(Cl)c(Nc2ccc3c(c2)CC(=O)N3C)n1` (stereo partly drawn) [Example 81, 3-(6-(((2S,4R)-1-(5-chloro-4-((1-methyl-2-oxoindolin-5-yl)amino)pyrimidin-2-yl)-2-methylpiperidin-4-yl)amino)-1-methyl-1H-indazol-3-yl)piperidine-2,6-dione], the Percent BCL6 remaining at maximal degradation (Ycon) was < 20%. The figure for `C[C@H]1C[C@H](N(C)c2ccc3c(C4CCC(=O)NC4=O)nn(C)c3c2)CCN1c1ncc(Cl)c(Nc2ccc3c(c2)CC(=O)N3C)n1` (stereo partly drawn) [Example 84, 3-(6-(((2S,4R)-1-(5-chloro-4-((1-methyl-2-oxoindolin-5-yl)amino)pyrimidin-2-yl)-2-methylpiperidin-4-yl)(methyl)amino)-1-methyl-1H-indazol-3-yl)piperidine-2,6-dione] is > 60%. The same measure for `C[C@@H]1CN(c2ncc(Cl)c(Nc3ccc4c(c3)CC(=O)N4C)n2)CC[C@H]1Nc1ccc2c(C3(C)CCC(=O)NC3=O)nn(C)c2c1` (stereo partly drawn) [Example 85, 3-(6-(((3R,4R)-1-(5-chloro-4-((1-methyl-2-oxoindolin-5-yl)amino)pyrimidin-2-yl)-3-methylpiperidin-4-yl)amino)-1-methyl-1H-indazol-3-yl)-3-methylpiperidine-2,6-dione]: < 20%; for `C[C@@H]1CN(c2ncc(Cl)c(Nc3ccc4c(c3)CC(=O)N4C)n2)CC[C@H]1Nc1cc2c(cn1)c(C1CCC(=O)NC1=O)nn2C` (stereo partly drawn) [Example 86, 3-(6-(((3R,4R)-1-(5-chloro-4-((1-methyl-2-oxoindolin-5-yl)amino)pyrimidin-2-yl)-3-methylpiperidin-4-yl)amino)-1-methyl-1H-pyrazolo[4,3-c]pyridin-3-yl)piperidine-2,6-dione]: < 20%; for `CCN1C(=O)Cc2cc(Nc3nc(N4CCC(Nc5ccc6c(C7CCC(=O)NC7=O)nn(C)c6c5)CC4)ncc3Cl)ccc21` (stereo not drawn) [Example 89, 3-(6-((1-(5-chloro-4-((1-ethyl-2-oxoindolin-5-yl)amino)pyrimidin-2-yl)piperidin-4-yl)amino)-1-methyl-1H-indazol-3-yl)piperidine-2,6-dione]: > 60%.

As for `C[C@@H]1CN(c2ncc(Cl)c(Nc3cc4c(cc3F)N(C)C(=O)C4)n2)CC[C@H]1Nc1ccc2c(C3CCC(=O)NC3=O)nn(C)c2c1` (stereo partly drawn) [Example 92, 3-(6-(((3R,4R)-1-(5-chloro-4-((6-fluoro-1-methyl-2-oxoindolin-5-yl)amino)pyrimidin-2-yl)-3-methylpiperidin-4-yl)amino)-1-methyl-1H-indazol-3-yl)piperidine-2,6-dione], the Percent BCL6 remaining at maximal degradation (Ycon) is < 20%.
